The target in assay [1] is T1, c-Met (cytoplasmic domain) (Homo sapiens, UniProt P08581).
T1 construct: 10 ng/mL c-Met (cytoplasmic domain, Invitrogen Corporation #PV3143); purchased Invitrogen Corporation PV3143
Briefly: c-Met Kinase Assay (same methods as for ALK, with modifications). The class given is biochemical. The essentials:
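Europium-labeled PT66 antibody (Eu-N1) detects substrate phosphorylation on wells coated with phospholipase C-γ at 10 μg/mL. The kinase, the cytoplasmic domain of c-Met at 10 ng/mL, starts the reaction, which proceeds 15 minutes at 37° C.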

The target in assay [2] is T2, baculovirus-expressed ALK (Homo sapiens, UniProt Q9UM73).
T2 construct: host or cells: baculovirus expression system
T2 sequence (Q9UM73 19-1620): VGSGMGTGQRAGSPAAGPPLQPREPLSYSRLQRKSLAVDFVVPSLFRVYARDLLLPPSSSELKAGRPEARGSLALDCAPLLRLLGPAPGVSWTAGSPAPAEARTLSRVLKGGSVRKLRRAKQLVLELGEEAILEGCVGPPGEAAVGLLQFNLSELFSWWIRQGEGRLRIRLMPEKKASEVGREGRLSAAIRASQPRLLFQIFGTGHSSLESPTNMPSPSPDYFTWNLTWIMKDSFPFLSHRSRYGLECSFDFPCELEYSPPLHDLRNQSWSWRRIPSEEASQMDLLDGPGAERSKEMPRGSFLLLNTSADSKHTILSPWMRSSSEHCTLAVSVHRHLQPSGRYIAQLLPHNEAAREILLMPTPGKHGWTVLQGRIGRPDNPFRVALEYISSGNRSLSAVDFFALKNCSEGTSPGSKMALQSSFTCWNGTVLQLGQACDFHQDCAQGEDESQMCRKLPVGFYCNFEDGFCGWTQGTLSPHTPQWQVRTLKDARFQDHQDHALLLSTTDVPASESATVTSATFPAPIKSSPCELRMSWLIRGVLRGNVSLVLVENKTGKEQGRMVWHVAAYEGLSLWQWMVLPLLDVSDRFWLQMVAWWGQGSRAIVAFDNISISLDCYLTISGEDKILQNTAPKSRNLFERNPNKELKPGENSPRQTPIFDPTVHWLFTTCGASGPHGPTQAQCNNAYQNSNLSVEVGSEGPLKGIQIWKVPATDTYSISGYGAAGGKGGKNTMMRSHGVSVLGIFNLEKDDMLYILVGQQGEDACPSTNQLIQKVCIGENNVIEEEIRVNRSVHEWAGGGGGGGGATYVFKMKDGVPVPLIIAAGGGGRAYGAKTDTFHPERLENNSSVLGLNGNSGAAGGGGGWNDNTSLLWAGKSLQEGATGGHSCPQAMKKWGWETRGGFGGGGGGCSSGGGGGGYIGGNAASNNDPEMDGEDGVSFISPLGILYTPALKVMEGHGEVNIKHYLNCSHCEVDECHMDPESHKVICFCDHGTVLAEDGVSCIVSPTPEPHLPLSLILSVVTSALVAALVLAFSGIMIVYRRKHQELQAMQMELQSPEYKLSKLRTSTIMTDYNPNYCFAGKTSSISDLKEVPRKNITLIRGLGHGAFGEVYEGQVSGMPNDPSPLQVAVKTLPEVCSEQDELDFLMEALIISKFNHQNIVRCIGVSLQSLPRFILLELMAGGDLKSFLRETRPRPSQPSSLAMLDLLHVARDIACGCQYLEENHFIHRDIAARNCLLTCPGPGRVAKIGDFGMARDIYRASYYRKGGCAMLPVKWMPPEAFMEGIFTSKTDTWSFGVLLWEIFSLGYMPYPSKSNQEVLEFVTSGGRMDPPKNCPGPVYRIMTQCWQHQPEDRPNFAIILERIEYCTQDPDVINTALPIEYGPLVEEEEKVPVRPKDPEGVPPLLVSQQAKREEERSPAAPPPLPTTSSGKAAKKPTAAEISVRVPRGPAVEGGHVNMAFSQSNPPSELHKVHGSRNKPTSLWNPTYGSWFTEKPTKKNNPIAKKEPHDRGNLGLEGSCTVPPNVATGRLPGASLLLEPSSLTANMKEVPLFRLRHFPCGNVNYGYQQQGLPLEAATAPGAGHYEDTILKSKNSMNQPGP
As to the kind of experiment: ALK Kinase Assay (ELISA-type, time-resolved fluorescence). The class given is biochemical. Summed up: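 Plates coated with phospholipase C-γ substrate (10 μg/mL in TBS); reaction started with 30 ng/ml ALK and run 15 min at 37° C. Phosphorylated substrate detected with Eu-N1-labeled PT66 antibody. IC50 from sigmoidal variable-slope fit of percent inhibition vs log concentration.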
(ELISA stands for enzyme-linked immunosorbent assay.)

[3] abbreviates: 1 μM ATP (Km level), 10 ng/mL c-Met, read-out: cMet Activity (c-Met kinase inhibition, IC50 class).
[4] abbreviates: 1 μM ATP (Km level), 30 ng/ml ALK, 37° C., 15 minutes, read-out: ALK Activity (ALK kinase inhibition, IC50 class).
Where [5] appears, read: 1 μM ATP (Km level), read-out: cMet Activity (c-Met Kinase Inhibition, IC50).
[6] abbreviates: 1 μM ATP (Km level), read-out: ALK Activity (ALK Kinase Inhibition, IC50).
Where [7] appears, read: c-Met kinase inhibition, 1 μM ATP (Km level), read-out: cMet Activity.
Setting [8] is: ALK kinase inhibition, 1 μM ATP (Km level), read-out: ALK Activity.
[9] abbreviates: c-Met kinase inhibition, 1 μM ATP, read-out: cMet Activity.
[10] abbreviates: ALK kinase inhibition, 1 μM ATP, read-out: ALK Activity.

The values that follow come from patent US8148391B2 (Cephalon, Inc., priority 2006, dated 2012).

Each structure is given as a SMILES string. Like-named read-outs stand apart in the source and are kept apart here.

T1 sequence (P08581 956-1390 limits assumed): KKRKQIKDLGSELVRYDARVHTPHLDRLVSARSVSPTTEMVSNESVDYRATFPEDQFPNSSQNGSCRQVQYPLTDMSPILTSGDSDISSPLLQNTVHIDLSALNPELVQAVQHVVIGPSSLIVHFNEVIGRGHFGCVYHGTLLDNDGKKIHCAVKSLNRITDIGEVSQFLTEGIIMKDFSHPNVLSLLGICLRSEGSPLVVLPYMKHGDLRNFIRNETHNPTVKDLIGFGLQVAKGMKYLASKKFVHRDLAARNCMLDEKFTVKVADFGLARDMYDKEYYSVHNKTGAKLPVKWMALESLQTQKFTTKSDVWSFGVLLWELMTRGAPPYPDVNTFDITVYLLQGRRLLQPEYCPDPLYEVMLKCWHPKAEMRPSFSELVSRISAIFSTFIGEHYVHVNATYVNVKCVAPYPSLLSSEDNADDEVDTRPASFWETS

On to `COCCN1CCc2ccc(Nc3ncc(Cl)c(Nc4c(F)cccc4OCCCOCc4ccccc4)n3)cc2CC1` [Example 1284, N(4)-[2-(3-Benzyloxy-propoxy)-6-fluoro-phenyl]-5-chloro-N(2)-[3-(2-methoxy-ethyl)-2,3,4,5-tetrahydro-1H-3-benzazepin-7-yl]-pyrimidine-2,4-diamine], for which the IC50 was 1 to 10 µM in assay [1] (setting [3]) and 0.1 to 1 µM in assay [2] (setting [4]).
For `COc1cc2c(cc1Nc1ncc(Cl)c(Nc3ccccc3S(=O)(=O)N(C)C)n1)CCN(C(=O)C1COCCO1)CC2` (stereo not drawn) [Example 634, 2-{5-Chloro-2-[3-([1,4]dioxane-2-carbonyl)-8-methoxy-2,3,4,5-tetrahydro-1H-benzo[d]azepin-7-ylamino]-pyrimidin-4-ylamino}-N,N-dimethyl-benzenesulfonamide], the IC50 in assay [1] (setting [5]) was over 10 µM; in assay [2] (setting [6]), under 0.1 µM.
As to `COc1cc2c(cc1Nc1ncc(Cl)c(Nc3ccccc3S(=O)(=O)C(C)C)n1)CCC(NCC(F)F)CC2` (stereo not drawn) [Example 1056, 5-Chloro-N*2*-[7-(2,2-difluoro-ethylamino)-3-methoxy-6,7,8,9-tetrahydro-5H-benzocyclohepten-2-yl]-N*4*-[2-(propane-2-sulfonyl)-phenyl]-pyrimidine-2,4-diamine], the IC50 is 1 to 10 µM in assay [1] (setting [3]) and under 0.1 µM in assay [2] (setting [4]).
As for `CNC(=O)c1cc(C)cc(C)c1Nc1nc(Nc2ccc3c(c2)CCN(CCOC)CC3)ncc1Cl` [Example 317, 2-{5-Chloro-2-[3-(2-methoxy-ethyl)-2,3,4,5-tetrahydro-1H-benzo[d]azepin-7-ylamino]-pyrimidin-4-ylamino}-3,5,N-trimethyl-benzamide], the IC50 in assay [1] (setting [7]) and in assay [2] (setting [8]) was 0.1 to 1 µM each time.
Take `CNC(=O)c1cccc(F)c1Nc1nc(Nc2ccc3c(c2)-n2cccc2C=CO3)ncc1Cl` [Example 1269, 2-[5-Chloro-2-(6-oxa-10b-aza-benz[e]azulen-9-ylamino)-pyrimidin-4-ylamino]-3-fluoro-N-methyl-benzamide]: the IC50 was under 0.1 µM in assay [1] (setting [3]) and 0.1 to 1 µM in assay [2] (setting [4]).
As for `CNC(=O)c1sc(Cl)c(C)c1Nc1nc(Nc2ccc3c(c2)CCOC(=O)N3C)ncc1Cl` [Example 1770, 5-Chloro-3-[5-chloro-2-(5-methyl-6-oxo-5,6,8,9-tetrahydro-7-oxa-5-aza-benzocyclohepten-2-ylamino)-pyrimidin-4-ylamino]-4-methyl-thiophene-2-carboxylic acid methylamide], the IC50 was under 0.1 µM in assay [1] (setting [9]) and 0.1 to 1 µM in assay [2] (setting [10]).
`C#CCNC(=O)c1sccc1Nc1nc(Nc2ccc3c(c2)CCOC(=O)N3C)ncc1Cl` [Example 1760, 3-[5-Chloro-2-(5-methyl-6-oxo-5,6,8,9-tetrahydro-7-oxa-5-aza-benzocyclohepten-2-ylamino)-pyrimidin-4-ylamino]-thiophene-2-carboxylic acid prop-2-ynylamide]: the IC50 in assay [1] (setting [9]) was under 0.1 µM; in assay [2] (setting [10]), 0.1 to 1 µM.
Consider `CNC(=O)c1ccccc1Nc1nc(Nc2ccc3c(c2)CCN(C[C@H](O)C(F)(F)F)CC3)ncc1Cl` [Example 328, 2-{5-Chloro-2-[3-((S)-3,3,3-trifluoro-2-hydroxy-propyl)-2,3,4,5-tetrahydro-1H-benzo[d]azepin-7-ylamino]-pyrimidin-4-ylamino}-N-methyl-benzamide], for which the IC50 in assay [1] (setting [7]) and in assay [2] (setting [8]) was under 0.1 µM each time.
On to `CNC(=O)c1cccc(Cl)c1Nc1nc(Nc2ccc3c(c2)C2CCC(C3)N2)ncc1Cl` (stereo not drawn) [Example 90, 2-[2-(12-Aza-tricyclo[7.2.1.0*2,7*]dodeca-2(7),3,5-trien-4-ylamino)-5-chloro-pyrimidin-4-ylamino]-3-chloro-N-methyl-benzamide], for which the IC50 in assay [1] (setting [7]) was under 0.1 µM; in assay [2] (setting [8]), 0.1 to 1 µM.
Take `CNC(=O)CN1CCc2ccc(Nc3ncc(Cl)c(Nc4c(Cl)cccc4C(=O)NC)n3)cc2CC1` [Example 1373, 3-Chloro-2-[5-chloro-2-(3-methylcarbamoylmethyl-2,3,4,5-tetrahydro-1H-benzo[d]azepin-7-ylamino)-pyrimidin-4-ylamino]-N-methyl-benzamide]: the IC50 in assay [1] (setting [3]) is under 0.1 µM; in assay [2] (setting [4]), 0.1 to 1 µM.
Regarding `CCN1CCc2ccc(Nc3ncc(Cl)c(Nc4cccc(OCC#N)c4)n3)cc2CC1` [Example 927, {3-[5-Chloro-2-(3-ethyl-2,3,4,5-tetrahydro-1H-benzo[d]azepin-7-ylamino)-pyrimidin-4-ylamino]-phenoxy}-acetonitrile], the values for the IC50 in assay [1] (setting [5]) and in assay [2] (setting [6]) were 0.1 to 1 µM and under 0.1 µM, respectively.
For `CNC(=O)c1ccccc1N(C)c1nc(Nc2ccc3c(c2)CC(=O)N(C)CC3)ncc1F` [Example 1824, 2-{[5-Fluoro-2-(3-methyl-4-oxo-2,3,4,5-tetrahydro-1H-benzo[d]azepin-7-ylamino)-pyrimidin-4-yl]-methyl-amino}-N-methyl-benzamide], the IC50 in assay [1] (setting [9]) was over 10 µM; in assay [2] (setting [10]), 1 to 10 µM.
`COc1cc2c(cc1Nc1ncc(Cl)c(Nc3ccccc3S(=O)(=O)N(C)C)n1)CCN(CCO)CC2` [Example 1530, 2-{5-Chloro-2-[3-(2-hydroxy-ethyl)-8-methoxy-2,3,4,5-tetrahydro-1H-3-benzazepin-7-ylamino]-pyrimidin-4-ylamino}-N,N-dimethyl-benzenesulfonamide]: the figures for the IC50 in assay [1] (setting [9]) and in assay [2] (setting [10]) were 1 to 10 µM and under 0.1 µM, respectively.
With `COc1cc2c(cc1Nc1ncc(Cl)c(Nc3ccccc3S(=O)(=O)N(C)C)n1)CCN(C(CF)CF)CC2` [Example 1393, {5-Chloro-2-[3-(2-fluoro-1-fluoromethyl-ethyl)-8-methoxy-2,3,4,5-tetrahydro-1H-benzo[d]azepin-7-ylamino]-pyrimidin-4-ylamino}-N,N-dimethyl-benzenesulfonamide], the IC50 is over 10 µM in assay [1] (setting [3]) and under 0.1 µM in assay [2] (setting [4]).
As to `CS(=O)(=O)Nc1ccccc1Nc1nc(Nc2ccc3c(c2)CNCCS3(=O)=O)ncc1Cl` [Example 523, N-{2-[5-Chloro-2(5,5dioxo-6,7,8,9-tetrahydro-5H-5lambda*6*-thia-8-aza-benzocyclohepten-2-ylamino)-pyrimidin-4-ylamino]-phenyl}-methanesulfonamide], the IC50 lay in the range of 1 to 10 µM in assay [1] (setting [5]) and 0.1 to 1 µM in assay [2] (setting [6]).
For `CNC(=O)c1ccccc1Nc1nc(Nc2cc3c(cc2OC)CCOC(=O)N3C)ncc1Cl` [Example 1511, 2-[5-Chloro-2-(2-methoxy-5-methyl-6-oxo-5,6,8,9-tetrahydro-7-oxa-5-aza-benzocyclohepten-3-ylamino)-pyrimidin-4-ylamino]-N-methyl-benzamide], the IC50 was 1 to 10 µM in assay [1] (setting [9]) and under 0.1 µM in assay [2] (setting [10]).
With `NC(=O)[C@@H]1[C@H](Nc2nc(Nc3ccc4c(c3)CCC(N3CCOCC3)CC4)ncc2Cl)[C@H]2C=C[C@@H]1C2` (stereo partly drawn) [Example 671, (1S,2S,3R,4R)-3-[5-Chloro-2-(7-morpholin-4-yl-6,7,8,9-tetrahydro-5H-benzocyclohepten-2-ylamino)-pyrimidin-4-ylamino]-bicyclo[2.2.1]hept-5-ene-2-carboxylic acid amide], the IC50 in assay [1] (setting [5]) and in assay [2] (setting [6]) was under 0.1 µM each time.
In the case of `CCN1CC(O)(CO)COc2cc(Nc3ncc(Cl)c(Nc4c(F)cccc4C(=O)NC)n3)ccc21` (stereo not drawn) [Example 1736, 2-[5-Chloro-2-(9-ethyl-7-hydroxy-7-hydroxymethyl-6,7,8,9-tetrahydro-5-oxa-9-aza-benzocyclohepten-3-ylamino)-pyrimidin-4-ylamino]-3-fluoro-N-methyl-benzamide], the IC50 was under 0.1 µM in assay [1] (setting [9]) and 0.1 to 1 µM in assay [2] (setting [10]).
